Tests used:
[1] = tested on: C. albicans; assay: Extracellular acidification assay; format: cell-based; details: Candida albicans, mean ± SEM n = 3
Text: (§1) It was subsequently evaluated whether or not the carbazoles were able to prevent extracellular acidification of the surrounding media by blocking the pumping activity of the H^+-ATPase within fungal cells.[15] […] The H^+-ATPase requires ATP to transport protons out of fungal cells. Consequently, a decrease in intracellular ATP (iATP) levels will indirectly affect H^+-ATPase activity. […] In all cases, iATP levels were […] in C. albicans cells exposed to carbazoles compared to the untreated control. […] This implies that the carbazoles need to pass the fungal membrane to inhibit the H^+-ATPase and 7, 18 and 19 may have reduced membrane permeability.
(§2) The ability of S. cerevisiae and C. albicans to acidify the media upon glucose addition was evaluated using the pH sensor dextran (40,000MW)-fluorescein-isothiocyanate as described in Kjellerup et al., 2017^6. Briefly, the cells was starved overnight in 50 mM KCl, pH 6.7 at 4 °C. The cell suspension (Final OD600 of 0.19) was mixed with 1.3 µg/ml dextran (40,000MW)-fluorescein-isothiocyanate, 1.5 % DMSO containing inhibitors and the assay initiated with the addition of 2 % D-(+)-glucose. The rate of media acidification was calculated based on the slope of the fluorescent drop in the first 12 minutes after glucose addition.

[2] = tested on: S. cerevisiae; assay: Extracellular acidification assay; format: cell-based; details: Saccharomyces cerevisiae, mean ± SEM n = 3
Text: as §1, §2

[3] = tested on: C. albicans (SC5314); assay: Time-kill assay; format: cell-based
Description: (§3) Time-kill studies were carried out to investigate whether the antifungal activity observed for 10 was fungistatic or fungicidal. Given the essential nature of fungal H^+-ATPase, it is anticipated that compounds targeting H^+-ATPase activity will promote fungicidal effects.[21]
(§4) Fig. 7 Time-kill data for C. albicans and C. glabrata cells (1 × 10^5 CFU/ml) incubated with DMSO (final concentration 1%), 1 µM AMB, and 5 or 10 µM of compound 10.
(§5) C. albicans (SC5314) and C. glabrata (ATCC 90030) cells (1 x 10^5 CFU/ml) were incubated in 10 mL RPMI media at 30 °C with gentle agitation (150 rpm) in the presence of amphotericin B (1 µM) or compound 10 at a concentration of 5 or 10 µM. At the indicated time points (0, 1, 3, 5 and 24 h at 30 °C incubation, 150 rpm), 100-μL aliquots were removed, serially diluted (10-fold) in saline (0.9% NaCl), and plated on YPD agar plates. The resulting CFUs were enumerated after incubation at 30 °C for 48 h. Cells treated with DMSO (1%, v/v) served as a control.

[4] = tested on: C. glabrata (ATCC 90030); assay: Time-kill assay; format: cell-based
Description: as §3, §4, §5

[5] = tested on: Pseudomonas aeruginosa; design: method as in PMID 25453797, PMID 27167126; details: cited from earlier work
[6] = molecular target: T1, S. cerevisiae H^+-ATPase (Saccharomyces cerevisiae, UniProt P05030); assay: NADH-coupled ATPase assay, initial rate of ATP hydrolysis; format: biochemical; details: pH 7, n = 3
T1 construct: transformed with the full-length cDNA of the S. cerevisiae plasma membrane H^+-ATPase isoform PMA1; made in house; host or cells: S. cerevisiae RS72
Description: To investigate whether the ATPase inhibition observed was due to compound binding at the ATP binding site, three compounds (5, 7, and 10) were selected for further evaluation in an ATPase activity assay on S. cerevisiae H^+-ATPase-containing membranes in presence of increasing ATP concentrations. The initial rate of ATP turnover was measured spectrophotometrically by an NADH-coupled ATPase activity assay that uses phosphoenolpyruvate to regenerate ATP, as described in Møller et al., 1980.[18]
Fig. 5 Kinetics of H^+-ATPase inhibition by carbazole compounds. The initial rate of ATP hydrolysis catalyzed by S. cerevisiae H^+-ATPase was determined by an NADH-coupled ATPase assay, as described in the Supporting Information. The reaction was initiated by the addition of H^+-ATPase-containing membranes (arrows with “H^+-ATPase”) to a pH 7 buffer containing 5 mM ATP. At the indicated times the respective compounds were added to give the final compound concentrations shown in the figure and a final DMSO concentration of 1.1%.
Fig. 6 Compound dependence of the initial rate of H^+-ATPase activity at 1 mM (triangles) or 10 mM (circles) ATP. The initial rates following compound addition deduced from experiments similar to those shown in Fig. 5 were normalized to the maximal rate obtained at 10 mM ATP in the absence of compound (presence of 1.1% DMSO) and plotted as a function of the compound concentration.
The initial rate of ATP turnover at RT was measured spectrophotometrically at 340 nm by an NADH-coupled ATPase assay that uses phosphoenolpyruvate to regenerate ATP, as described in Møller et al., 1980^4. The reaction buffer contained 17.5 mM MOPS-NaOH pH 7, 44 mM KNO3, 22 mM NaN3, 0.22 mM Na2MoO4, 1 mM phosphoenolpyruvate, 0.27 mM NADH, 83 µg/ml pyruvate kinase, 22 µg/ml L-lactate dehydrogenase, either 1, 5 or 10 mM ATP, and MgSO4 to give a Mg^2+ concentration of 2 mM in excess over the ATP concentration. The ATPase reaction was initiated by the addition of 0.2-0.3 mg/ml of S. cerevisiae Pma1-containing membranes followed by addition of compound (resulting in a final DMSO concentration of 1.1%).

T1 sequence (P05030 whole entry, canonical isoform): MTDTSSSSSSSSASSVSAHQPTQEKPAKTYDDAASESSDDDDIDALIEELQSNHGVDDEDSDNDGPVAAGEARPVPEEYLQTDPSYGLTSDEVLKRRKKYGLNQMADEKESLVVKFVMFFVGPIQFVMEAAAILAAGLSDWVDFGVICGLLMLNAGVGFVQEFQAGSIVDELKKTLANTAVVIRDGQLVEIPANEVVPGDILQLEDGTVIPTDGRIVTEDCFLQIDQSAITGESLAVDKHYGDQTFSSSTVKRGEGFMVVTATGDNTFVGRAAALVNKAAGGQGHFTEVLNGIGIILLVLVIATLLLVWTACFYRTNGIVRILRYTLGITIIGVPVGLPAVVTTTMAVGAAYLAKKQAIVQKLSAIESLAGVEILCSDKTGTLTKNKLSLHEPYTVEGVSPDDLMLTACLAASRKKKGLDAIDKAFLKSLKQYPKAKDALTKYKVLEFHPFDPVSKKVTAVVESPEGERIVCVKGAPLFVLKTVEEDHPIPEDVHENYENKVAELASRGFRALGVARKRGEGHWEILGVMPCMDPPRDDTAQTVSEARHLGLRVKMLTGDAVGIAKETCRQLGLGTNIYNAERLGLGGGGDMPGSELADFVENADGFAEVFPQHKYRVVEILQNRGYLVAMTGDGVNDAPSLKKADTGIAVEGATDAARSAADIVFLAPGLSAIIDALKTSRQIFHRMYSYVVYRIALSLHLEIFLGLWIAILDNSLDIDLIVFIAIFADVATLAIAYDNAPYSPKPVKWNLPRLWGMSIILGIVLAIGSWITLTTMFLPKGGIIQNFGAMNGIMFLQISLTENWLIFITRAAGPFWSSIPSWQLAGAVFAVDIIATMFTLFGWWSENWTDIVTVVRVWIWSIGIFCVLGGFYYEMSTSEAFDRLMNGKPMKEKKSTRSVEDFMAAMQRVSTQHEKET

| Compound | IC50 [1] [µM] | IC50 [2] [µM] | exposure time after which fungicidal activity was evident ([3]; 10 µM) [h] | time-kill outcome (fungistatic or fungicidal) ([3]; 5 or 10 µM, versus 1 µM AMB) | exposure time after which fungicidal activity was evident ([4]; C. glabrata) [h] | time-kill outcome (fungistatic or fungicidal) ([4]; wild-type C. glabrata, 5 or 10 µM, versus 1 µM AMB) | activity in bacteria reported previously [5] | IC50 ([6]; 1 mM ATP) [µM] | IC50 ([6]; 10 mM ATP) [µM] |
| --- | --- | --- | --- | --- | --- | --- | --- | --- | --- |
| CN1CCN(CC(O)Cn2c3ccc(Cl)cc3c3cc(Cl)ccc32)CC1 (stereo not drawn) [Compound 8, 1-(3,6-dichloro-9H-carbazol-9-yl)-3-(4-methylpiperazin-1-yl)propan-2-ol] | 9.7 ± 6.8 | 11.1 ± 2.1 |  |  |  |  |  |  |  |
| CN1CCN(CCCn2c3ccc(Cl)cc3c3cc(Cl)ccc32)CC1 [Compound 16, 3,6-dichloro-9-(3-(4-methylpiperazin-1-yl)propyl)-9H-carbazole] | 9.5 ± 2.5 | 7.3 ± 0.4 |  |  |  |  |  |  |  |
| CN(C)CCCCn1c2ccc(Cl)cc2c2cc(Cl)ccc21 [Compound 15] | 13.1 ± 7.2 | 16.2 ± 2.6 |  |  |  |  |  |  |  |
| CCC(C)NCC(O)Cn1c2ccc(Cl)cc2c2cc(Cl)ccc21 (stereo not drawn) [Compound 10, 1-(sec-butylamino)-3-(3,6-dichloro-9H-carbazol-9-yl)propan-2-ol] | 2.4 ± 1.2 | 2.1 ± 1 | 1 | cell death comparable to that observed for amphotericin B | 3 | cell death comparable to that observed for amphotericin B | membrane damaging activity | 4.5 ± 0.5 | 6.3 ± 1.2 |
| OC(Cn1ccnc1)Cn1c2ccc(Cl)cc2c2cc(Cl)ccc21 (stereo not drawn) [Compound 5, 1-(3,6-dichloro-9H-carbazol-9-yl)-3-(1H-imidazol-1-yl)propan-2-ol] |  |  |  |  |  |  |  | 78 ± 14.9 | 60 ± 14.2 |
| OC(CN1CCOCC1)Cn1c2ccc(Cl)cc2c2cc(Cl)ccc21 (stereo not drawn) [Compound 7, 1-(3,6-dichloro-9H-carbazol-9-yl)-3-morpholinopropan-2-ol] | 22.2 ± 12.9 | 33.3 ± 0.6 |  |  |  |  |  | 29.7 ± 6.7 | 16.8 ± 1.7 |

— article PMC5609566, “Elucidation of antimicrobial activity and mechanism of action by N-substituted carbazole derivatives” (Bioorganic & Medicinal Chemistry Letters, 2017)
